For one assay, the system named is Wnt5a. Briefly: Microarray of Wnt5a expression in 15-LOX-1 deficient ARPE-19 cells under uncompensated oxidative stress (UOS). In kind it is cell-based, human. The note with it: UOS=600 μM H2O2 plus 10 ng/ml TNFα, 6 hours, UOS alone gives 2-fold increase. The procedure: Primary human RPE cultures can be from human eyecups, provided by the National Disease Research Interchange (NDRI), as described previously (Calandria et al. 2012). hRPE cells can be grown and maintained in high-glucose MEM (Life Technologies Corporation, Carlsbad, Calif.) supplemented with 10% FBS (Tissue Culture Biologicals, Inc., Long Beach, Calif.), 5% NCS, non-essential amino acids, Penicillin-Streptomycin (100 U/mL), human fibroblast growth factor (FGF) 10 ng/mL and incubated at 37° C. with a constant supply of 5% CO2. ARPE-19 cells, can be plated and grown in DMEM/F-12 containing 10% FBS and 1× penicillin/streptomycin at 37° C., 5% CO2, 99% relative humidity for 24 h. Silenced 15-LOX-1 cells, described in detail elsewhere (Calandria et al. 2009), are derived from ARPE-19 by stably silencing 15-LOX-1. 15-LOX-1 deficient cells can be maintained in the same medium as ARPE-19 with the addition of 500 μg/mL Geneticin (Life Technologies Corporation, Carlsbad, Calif.). […] Transfection efficiency can be assessed using an expression plasmid-carrying GFP ORF or by including a negative control siRNA conjugated with Alexa Fluor® 488 or 546 (QIAGEN, Hilden, Germany). siRNA efficiency can be assessed using SYBR green-based real-time PCR using the primers of Table 2 and the percentage of silencing achieved (FIG. 7). […]

A further assay relates to Wnt5a promoter A. Briefly: ChIP assay of cRel binding to Wnt5a promoter A with real-time PCR. In kind it is cell-based, human. As to conditions: for cRel bound to genomic DNA, amplicon 3: RPE cells undergoing UOS, NPD1 added. From the text: Based on the regions found to bind NF-κB members (Table 4), we designed four sets of primers that bound in the proximity or within the regions of interest to perform SYBR green-based real-time PCR detection (FIG. 2, D-F and Table 3). FIGS. 2, D and F and Table 5, also show regions of high probability for methylation, a mechanism for blocking Wnt5a transcription (Vaidya et al. 2016). Micrococcal […] digested genomic DNA fragments from UOS or UOS-plus-NPD1-treated RPE cells, +/−rWnt5a, were pulled down by an antibody against cRel and used to test the four sets of primers. […] Methylation of Region 1 may occur since it was predicted by the Methprimer software (Table 5). […] The results obtained for amplicon 3, indicate competition between the Wnt5a-activated p65 and NPD1-activated cRel (FIG. 2E).
The chromatin immunoprecipitation assay can be performed using SimpleChIP® Plus Enzymatic Chromatin IP Kit (Cell Signaling Technology, Boston, Mass.) following the manufacturer's recommendations including ChIP validated cRel antibody. Positive control Histone H3 antibody and normal serum can be provided by a kit, as well as control primers for human RPL30 Exon 3. Primers A1 to 4 can be designed using Primer-Blast (NCBI, Bethesda, Md.)((Ye et al. 2012) and are depicted in Table 5. The immunoprecipitated samples real-time PCR values can be standardized using 10% of the input chromatin preparation using primers A1, A2, and A3 pooled values and RPL30 Exon 3 values.
The chromatin immunoprecipitation assay was performed using SimpleChIP® Plus Enzymatic Chromatin IP Kit (Cell Signaling Technology, Boston, Mass., USA) following the manufacturer's recommendations including ChIP validated cREL antibody. Positive control Histone H3 antibody and normal serum was provided by the kit, as well as control primers for human RPL30 Exon 3. Primers A1 to 4 were designed using Primer-Blast at NCBI platform (Ye et al., 2012) and are depicted in Table S5. The immunoprecipitated samples real-time PCR values were standardized using 10% of the input chromatin preparation using primers A1, A2, and A3 pooled values and RPL30 Exon 3 values.

“Also recorded” adds a separate entry of the source.

With `CC/C=C\C[C@H](O)\C=C/C=C/C=C/[C@H](O)C/C=C\C/C=C\CCC(=O)O` [NPD1, 10R,17S-dihydroxy-docosa-4Z,7Z,11E,13E,15Z,19Z-hexaenoic acid], in the assay on Wnt5a, the Wnt5a expression entry was “brought down to below controls; also recorded: reversed”. Besides, the “cRel bound to genomic DNA, amplicon 2 (Region 3 and 4)” value with Wnt5a promoter A (RPE cells under UOS, NPD1 100 nM) is on record as “twice the amount of cRel bound”. For the same compound, the “cRel binding, amplicon 4” value in the assay with Wnt5a promoter A (RPE cells undergoing UOS in the presence of rWnt5a) was “restored the cRel binding to control levels”. Besides, the “cRel bound to genomic DNA, amplicon 3” value was 10 fold in the assay with Wnt5a promoter A (Wnt5a present) and “more than 20 fold” in the assay on Wnt5a promoter A (absence of Wnt5a). Moreover, the “cRel binding to genomic DNA, amplicon A1” value in the assay on Wnt5a promoter A (RPE cells, UOS or UOS plus NPD1, +/−rWnt5a) is recorded as “no differences between treatments”.

The values above are taken from patent US20220119446A1, “BIOMARKERS AND TREATMENT OF NEURONAL INJURY AND NEURODEGENERATION” (Board of Supervisons of Louisiana State University and …, priority 2018, published 2022).
